Where “and” joins values, the source holds several entries; their conditions need not be identical. Identical values can stand only once. Like-named read-outs stand apart in the source and are kept apart here.
Assays:
[1] = Cell viability, MTT assay; type: cell-based, Human; conditions: human, HEK293-ACE2 cells, 10 µM, 24 hours administration
Protocol: (§1) HEK293-ACE2 cells were seeded (2 x 10^4 cells/well) on 96-well plates in a complete DMEM medium with 10% FBS. After incubation for 24 hours at 37°C in humidified 5% CO2, the medium was replaced with a fresh one containing lurasidone previously dissolved in Milli-Q water at 0.1 – 100 µM. Control cells were treated with an equivalent volume of vehicle only. Cells were incubated for 24 hours at 37°C in humidified 5% CO2, then the medium was replaced with a fresh one without lurasidone. After an additional incubation of 24 hours at 37°C in humidified 5% CO2, HEK293-ACE2 cells were treated with 5 mg/ml 3-(4,5-dimethylthiazol-2-yl)-2,5 diphenyltetrazolium bromide (MTT) (Sigma Aldrich, St. Louis, MO, USA, #M5655-1G) in 5 mM Phosphate Buffered Saline (PBS), pH 7.4. After incubation for 4 hours at 37°C, MTT was removed, and the cells resuspended in isopropanol containing 0.04 M HCl. The absorbance of the samples was determined at 560 nm using a spectrophotometer (Infinite M200, Tecan, Männedorf, Switzerland), and the cell viability was expressed as a percentage of Vehicle-treated cells.

HEK293-ACE2 cells = test: Cell viability, MTT assay; type: cell-based, Human; conditions: 100 µM (maximum tested dose), 24 hours administration
Protocol: as §1

SARS-CoV-2 [2] = test: SARS-CoV-2 virus inactivation (virucidal) assay; type: cell-based; conditions: 5 μM incubated with SARS-CoV-2 for 2 hours, Vero E6 plaque assay
[3] = Cell viability assay on MRC-5 cells; type: cell-based; conditions: human, same conditions as antiviral assay
Protocol: Pre-seeded MRC-5 cells were treated with the drug at concentrations ranging from 1000 to 12.3 μM or equal volumes of DMSO as control, under the same experimental conditions for the antiviral assays. After incubation, the CellTiter 96 Proliferation Assay Kit (Promega, Madison, WI, USA) was used to determine the effect of lurasidone on cell viability. The effect on cell viability was expressed as a percentage, by comparing absorbances of treated cells with those of cells incubated with DMSO-treated control wells.
(§2) All data were analyzed with GraphPad Prism version 8.00 software. Results were expressed as mean values for three independent experiments performed in duplicate. […] Selectivity indexes were calculated as SI = CC50/EC50. The Student’s T-test was used to compare viral titers in virus inactivation assay. The viral titers of control and treated samples in time-of-addition assays were compared using a one-way analysis of variance (ANOVA) and a post-hoc Bonferroni test. Significance was set at p value <0.05 (*), <0.01 (**) and <0.001 (***).

[4] = system: lentiviral vector exposing the SARS-CoV-2 Spike protein, B.1.1.7 UK isoform; type: cell-based; conditions: 1 µM, 4 h pre-incubation, HEK293-ACE2, B.1.1.7 UK Spike
HCoV-OC43 [5] = test: HCoV-OC43 time-of-addition assay; type: cell-based; conditions: 50 µM; for antiviral activity, virus released in supernatant: MRC-5, MOI 0.1, 24 hours post-infection
[6] = system: ACE2 levels in HEK293-ACE2 cells; test: Western blot analysis of ACE2 expression; type: cell-based, Human; conditions: 5 µM, 24 h, HEK293-ACE2 cell lysates
Protocol: HEK293-ACE2 cells were seeded (2.4 x 10^5 cells/well) on 12-well plates in complete DMEM medium with 10% FBS and incubated for 24 hours at 37°C in humidified 5% CO2. The medium was then replaced with a fresh one containing 5 µM lurasidone. Control cells were treated with an equivalent volume of vehicle only. After incubation for 3, 6, and 24 hours at 37°C in humidified 5% CO2 the medium was removed, the cells collected and lysed for 15 min at 4°C with 20 mM Tris-HCl, pH 7.5, containing 150 mM NaCl, 1 mM Na2EDTA, 1 mM EGTA, 1% NP-40, 1% sodium deoxycholate, 2.5 mM sodium pyrophosphate, 1 mM β-glycerophosphate, 1 mM Na3VO4 and 1 µg/ml leupeptin. Samples were centrifuged for 10 min at 16,100 x g and the protein content was quantified by using a BCA protein assay kit (Thermofisher, Rockford, USA). 10 µg of total proteins were loaded in each lane, immunoblotted using 10% bis-Tris gel (Invitrogen, Waltham, MA, USA), and transferred to a PVDF membrane (Millipore, Vimodrone, Milan, Italy). The membranes were incubated overnight at 4°C with an anti-ACE2 AC18Z mouse monoclonal antibody (1:200, Santa Cruz Biotechnology, Santa Cruz, CA, USA) or anti-β-actin mouse monoclonal antibody (1:5000, Sigma Aldrich). Peroxidase-conjugated anti-mouse IgG (1:5000, Sigma Aldrich) was used as the secondary antibody. Hybridization signals were detected with a ChemiDoc XRS Touch Imaging System (Bio-Rad).

RdRp SARS-CoV-2 = target: T1, RdRp SARS-CoV-2 (Severe acute respiratory syndrome coronavirus 2, UniProt P0DTD1); test: biochemical
T1 construct: SARS-CoV-2 RdRp was expressed and purified as described; made in house

PL-Pro SARS-CoV-2 = target: T2, PL-Pro SARS-CoV-2 (Severe acute respiratory syndrome coronavirus 2, UniProt P0DTD1); test: Biochemical assay for SARS-CoV-2 PL-Pro
T2 construct: purified recombinant SARS-CoV-2 RdRp, 3CL-Pro and PL-Pro proteins

3CL-Pro SARS-CoV-2 = target: T3, 3CL-Pro SARS-CoV-2 (Severe acute respiratory syndrome coronavirus 2, UniProt P0DTD1); test: biochemical
T3 construct: The SARS-CoV-2 nsp5 protease activity was measured in black 384 well plates

[7] = system: lentiviral vector exposing the SARS-CoV-2 Spike protein, B.1.351 SA isoform; type: cell-based; conditions: 1 or 5 µM, 4 h pre-incubation, HEK293-ACE2, B.1.351 SA Spike
HCoV-OC43 [8] = test: HCoV-OC43 entry assay; type: cell-based; conditions: 100-0.4 μM during virus entry, MRC-5, MOI 0.05
Protocol: The assay evaluates whether the drug inhibits the entry of virus into host cells. First, a fixed inoculum of HCoV-OC43 at MOI of 0.05 was allowed to attach to prechilled confluent cells, for 20 min at 4°C. Cells were then washed with cold medium three times to remove unbound virus, treated with serial dilutions of lurasidone (from 100 to 0.4 μM), and incubated for 1 h at 34°C to allow virus entry. After incubation, outer virions were removed with a 30 second treatment of citrate buffer (pH 3.0). Then, cells were washed with warm medium three times and treated as for the antiviral assay.

SARS-CoV-2 [9] = test: microbe, parasite or virus in culture; type: cell-based
[10] = system: lentiviral vector exposing the SARS-CoV-2 Spike protein, Wuhan isoform; type: cell-based; conditions: 5 µM, 4 h pre-incubation, HEK293-ACE2, Wuhan Spike
[11] = target: T4, recombinant human ACE2 (rhACE2) (Homo sapiens, UniProt Q9BYF1); test: Surface plasmon resonance direct binding assay; conditions: 10 µM injected on immobilized rhACE2
T4 construct: purchased Acrobiosystem
T4 sequence (Q9BYF1 18-805): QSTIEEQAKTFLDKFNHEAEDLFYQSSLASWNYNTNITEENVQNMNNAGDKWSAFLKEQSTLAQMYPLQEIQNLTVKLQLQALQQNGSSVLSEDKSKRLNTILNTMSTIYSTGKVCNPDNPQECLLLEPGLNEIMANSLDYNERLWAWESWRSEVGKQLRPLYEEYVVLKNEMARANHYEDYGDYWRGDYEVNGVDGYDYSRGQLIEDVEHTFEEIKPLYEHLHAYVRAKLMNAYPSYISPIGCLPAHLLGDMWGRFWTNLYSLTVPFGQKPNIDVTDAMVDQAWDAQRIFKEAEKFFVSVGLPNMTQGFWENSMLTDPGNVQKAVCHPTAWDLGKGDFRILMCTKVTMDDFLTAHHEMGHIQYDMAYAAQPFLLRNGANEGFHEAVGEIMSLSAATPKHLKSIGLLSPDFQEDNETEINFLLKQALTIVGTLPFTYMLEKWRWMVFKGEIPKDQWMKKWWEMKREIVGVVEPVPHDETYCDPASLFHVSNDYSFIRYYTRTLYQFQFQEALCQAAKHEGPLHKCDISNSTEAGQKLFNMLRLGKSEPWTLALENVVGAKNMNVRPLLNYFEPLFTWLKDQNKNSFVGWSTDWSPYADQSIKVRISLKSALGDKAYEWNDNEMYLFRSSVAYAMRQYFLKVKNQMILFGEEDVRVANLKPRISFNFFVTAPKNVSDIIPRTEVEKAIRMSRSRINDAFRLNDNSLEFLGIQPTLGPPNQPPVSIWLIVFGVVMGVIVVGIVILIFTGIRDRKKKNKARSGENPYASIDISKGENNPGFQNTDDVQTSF
Protocol: Recombinant human ACE2-Fc tag (rhACE2) (Acrobiosystem) at 5 μg/mL in PBST was captured on a HC30M (Xantec) sensor chip after the immobilization of anti-Fc antibody (Biorad) at 25 μg/mL in acetate buffer pH 5.0 by classic amine coupling chemistry on a NHS/EDC activated surface, reaching a final immobilization level of ~ 1000 RU. Simultaneously, a mix of IgG antibodies at 25 μg/mL in acetate buffer pH 5.0 was immobilized on a parallel surface and used as reference.
To test the direct binding of rhACE2 and lurasidone, the drug was injected at 10 µM in PBST 0.1% DMSO for 200 seconds at 30 μl/min on both surfaces. In a different channel, we also flowed SARS-CoV-2 Spike protein RBD (Wuhan isotype) at 10 nM in PBST as a positive control.

[12] = design: method as in Bawa and Scarff, 2015; conditions: patients, minimal changes in the metabolic profile; ref Bawa and Scarff, 2015; cited from earlier work
HCoV-OC43 [13] = test: HCoV-OC43 virus inactivation assay; type: cell-based; conditions: 50 µM with 10^5 FFU for 2 h at 34°C
HCoV-OC43 [14] = test: HCoV-OC43 antiviral focus reduction assay; type: cell-based
Protocol: The antiviral efficacy of lurasidone was determined by focus reduction assay, as described elsewhere ([Milani et al., 2021]). Briefly, MRC-5 sub-confluent cells in 96-well plates were infected with HCoV-OC43 at a multiplicity of infection (MOI) of 0.001 FFU/cell and concurrently treated with increasing concentrations of drug (100 to 0.12 µM). After incubation at 34°C for 16 hours, infected foci were visualized with an indirect immunocytochemistry procedure, using a primary antibody directed against the nucleoprotein of HCoV-OC43 (MAB9013, Merck KGaA, Darmstadt, Germany) or a primary antibody directed against the dsRNA (10010500, Nordic-MUbio, Susteren, Netherlands).
as §2

Q: What does the source list for `O=C1[C@@H]2[C@H]3CC[C@H](C3)[C@@H]2C(=O)N1C[C@@H]1CCCC[C@H]1CN1CCN(c2nsc3ccccc23)CC1` [Lurasidone, lurasidone]?
A: viability at 24 h, 10 µM [1]: ~80%; toxicity (HEK293-ACE2 cells): ~ 40%; virucidal activity (SARS-CoV-2 [2]): did not show any significant virucidal activity; CC50 [3]: > 1000 µM; inhibition of transduction (GFP-positive cells) [4]: able to inhibit; reduction of virus titer (HCoV-OC43 [5]; 18 hours post-infection treatment, p < 0.001): significant reduction; antiviral activity, virus released in supernatant (HCoV-OC43 [5]; co-treatment 1 hour during virus inoculum): not active; inhibition of virus production (HCoV-OC43 [5]; post-treatment 1, 4, 18 hours after infection, MRC-5, MOI 0.1): significantly inhibited virus production; antiviral activity, virus released in supernatant (HCoV-OC43 [5]; pre-treatment 1 hour before infection): not active; modification in the ACE2 levels [6]: no significant modification; IC50 (RdRp SARS-CoV-2; 50 nM enzyme): > 100 µM; remaining activity at 100 µM (RdRp SARS-CoV-2; in the presence of 100 µM, read-out: Percentage of control activity, RdRp): 100%; IC50 (PL-Pro SARS-CoV-2): 0.12 ± 0.03 µM; IC50 (3CL-Pro SARS-CoV-2): > 100 µM; remaining activity at 100 µM (3CL-Pro SARS-CoV-2; in the presence of 100 µM, read-out: Percentage of control activity, 3CL-Pro): 87%; inhibition of transduction (GFP-positive cells) [7]: not effective; inhibition of virus entry into the host cell (HCoV-OC43 [8]): does not act during the early steps of virus infection; effect on viral replication (SARS-CoV-2 [9]): did not affect viral replication; inhibition of viral replication (SARS-CoV-2 [9]): 78% and 79% and 40%; inhibition at 5 µM (SARS-CoV-2 [9]; Severe acute respiratory syndrome coronavirus 2, 24 h, read-out: inhibition of viral replication): 76%; inhibition of transduction (GFP-positive cells) [10]: active; direct binding to rhACE2 (SPR) [11]: not able to bind; tolerability in clinical trials [12]: good tolerability; intrinsic virucidal activity (HCoV-OC43 [13]): not endowed with intrinsic virucidal activity; EC50 (HCoV-OC43 [14]; Betacoronavirus 1, OC43, MRC5, 16 h, read-out: EC50 (mean ± SD), viral marker NP (nucleoprotein), MRC-5 cells, MOI 0.001, 16 hours): 8.3 µM; EC50 (HCoV-OC43 [14]; Betacoronavirus 1, OC43, MRC5, 16 h, read-out: EC50 (mean ± SD), viral marker dsRNA, MRC-5 cells, MOI 0.001, 16 hours): 8.5 µM; EC90 (HCoV-OC43 [14]; Betacoronavirus 1, OC43, MRC5, read-out: EC90 (mean ± SD), viral marker NP (nucleoprotein), MRC-5 cells): 23.5 µM; EC90 (HCoV-OC43 [14]; Betacoronavirus 1, OC43, MRC5, read-out: EC90 (mean ± SD), viral marker dsRNA, MRC-5 cells): 11.9 µM; EC50 (HCoV-OC43 [14]; Betacoronavirus 1, OC43, both markers (NP and dsRNA)): ~8 µM; EC99 dose (HCoV-OC43 [14]; MRC-5 cells, HCoV-OC43): 50 µM; SI (CC50/EC50) (HCoV-OC43 [14]; viral marker NP): >120.5; SI (CC50/EC50) (HCoV-OC43 [14]; viral marker dsRNA): >117.6
